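Growth conditions: 96-well plates. Treatment: test compound, 48 hours, 5 concentrations. Analysis: linear interpolation between bracketing concentrations; unreached endpoints set to highest concentration. TGI denotes the concentration required for complete inhibition of growth.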
Legend:
Assay in all cases: inhibition of tumour cell growth, NCI panel, 48 h
[1] = test system: SF-295 CNS
[2] = test system: EKVX NSCLC
[3] = test system: PC-3 prostate
[4] = test system: HCC-2998 colon
[5] = test system: K-562 leukemia
[6] = test system: COLO 205 colon
[7] = test system: OVCAR-4 ovarian
[8] = test system: HT29 colon
[9] = test system: SNB-75 CNS
[10] = test system: 786-0 renal
[11] = test system: U251 CNS
[12] = test system: SW-620 colon
[13] = test system: OVCAR-8 ovarian
[14] = test system: KM12 colon
[15] = test system: NCI-H226 lung
[16] = test system: SN12C renal
[17] = test system: MDA-N
[18] = test system: MALME-3M melanoma
[19] = test system: CCRF-CEM leukemia
[20] = test system: MCF7 breast
[21] = test system: BT-549 breast
[22] = test system: OVCAR-3 ovarian
[23] = test system: ACHN renal
[24] = test system: MOLT-4 leukemia
[25] = test system: SK-MEL-5 melanoma
[26] = test system: HOP-92 NSCLC
[27] = test system: MDA-MB-435
[28] = test system: NCI-H522 lung
[29] = test system: SK-OV-3 ovarian
[30] = test system: UACC-257 melanoma
[31] = test system: IGROV1 ovarian
[32] = test system: DU-145 prostate
[33] = test system: UACC-62 melanoma
[34] = test system: M14 melanoma
[35] = test system: NCI-H23 lung
[36] = test system: HCT-116 colon
[37] = test system: RXF 393 renal
[38] = test system: MDA-MB-231 breast
[39] = test system: HL-60(TB) leukemia
[40] = test system: SK-MEL-2 melanoma
[41] = test system: HOP-62 NSCLC
[42] = test system: RPMI-8226 leukemia
[43] = test system: HS 578T breast
[44] = test system: TK-10 renal
[45] = test system: HCT-15 colon
[46] = test system: NCI/ADR-RES ovarian
[47] = test system: NCI-H460 lung
[48] = test system: UO-31 renal
[49] = test system: A549 NSCLC
[50] = test system: LOX IMVI melanoma
[51] = test system: CAKI-1 renal
[52] = test system: OVCAR-5 ovarian
[53] = test system: SR leukemia
[54] = test system: A498 renal
[55] = test system: SNB-19 CNS
[56] = test system: SF-539 CNS
[57] = test system: T-47D breast
[58] = test system: SF-268 CNS
[59] = test system: SK-MEL-28 melanoma

CC(=O)Oc1cc(-c2oc3cc(OC(C)=O)c(C4OC(CO)C(O)C(O)C4O)c(OC(C)=O)c3c(=O)c2O)c(OC(C)=O)cc1O (centres undefined)
TGI [1]: > 100 µM
TGI [2]: > 100 µM
TGI [3]: > 100 µM
TGI [4]: > 100 µM
TGI [5]: > 100 µM
TGI [6]: > 100 µM
TGI [7]: > 100 µM
TGI [8]: > 100 µM
TGI [9]: > 100 µM
TGI [10]: > 100 µM
TGI [11]: > 100 µM
TGI [12]: > 100 µM
TGI [13]: > 100 µM
TGI [14]: > 100 µM
TGI [15]: > 100 µM
TGI [16]: > 100 µM
TGI [17]: > 100 µM
TGI [18]: > 100 µM
TGI [19]: > 100 µM
TGI [20]: > 100 µM
TGI [21]: > 100 µM
TGI [22]: > 100 µM
TGI [23]: > 100 µM
TGI [24]: > 100 µM
TGI [25]: > 100 µM
TGI [26]: > 100 µM
TGI [27]: > 100 µM
TGI [28]: > 100 µM
TGI [29]: > 100 µM
TGI [30]: > 100 µM
TGI [31]: > 100 µM
TGI [32]: > 100 µM
TGI [33]: > 100 µM
TGI [34]: > 100 µM
TGI [35]: > 100 µM
TGI [36]: > 100 µM
TGI [37]: > 100 µM
TGI [38]: > 100 µM
TGI [39]: > 100 µM
TGI [40]: > 100 µM
TGI [41]: > 100 µM
TGI [42]: > 100 µM
TGI [43]: > 100 µM
TGI [44]: > 100 µM
TGI [45]: > 100 µM
TGI [46]: > 100 µM
TGI [47]: > 100 µM
TGI [48]: > 100 µM
TGI [49]: > 100 µM
TGI [50]: > 100 µM
TGI [51]: > 100 µM
TGI [52]: > 100 µM

NC1NCCC(=O)N1CCc1c[nH]c2ccccc12 (centres undefined)
TGI [1]: 64.6 µM
TGI [2]: 75.5 µM
TGI [53]: 57.7 µM
TGI [3]: 44.1 µM
TGI [4]: 35.2 µM
TGI [5]: 51 µM
TGI [6]: 32.5 µM
TGI [7]: 80.7 µM
TGI [8]: 82.9 µM
TGI [9]: 22.9 µM
TGI [10]: 37.6 µM
TGI [11]: > 100 µM
TGI [54]: 27.9 µM
TGI [12]: 42 µM
TGI [13]: 89.1 µM
TGI [14]: 29.8 µM
TGI [15]: 66.3 µM
TGI [55]: > 100 µM
TGI [16]: 67.6 µM
TGI [17]: 34.3 µM
TGI [18]: 40.1 µM
TGI [19]: 51.9 µM
TGI [20]: 29.2 µM
TGI [22]: 48.4 µM
TGI [23]: 55.5 µM
TGI [25]: 30.8 µM
TGI [26]: 69.5 µM
TGI [27]: 30.7 µM
TGI [28]: > 100 µM
TGI [56]: 31.5 µM
TGI [29]: > 100 µM
TGI [57]: > 100 µM
TGI [30]: 32.1 µM
TGI [31]: 43.1 µM
TGI [32]: 63 µM
TGI [33]: 37.6 µM
TGI [34]: 33.3 µM
TGI [35]: 38.6 µM
TGI [36]: 26.5 µM
TGI [37]: 43.5 µM
TGI [38]: 34.4 µM
TGI [39]: 44.7 µM
TGI [40]: 35.5 µM
TGI [41]: 43.2 µM
TGI [42]: 60.3 µM
TGI [43]: 55.2 µM
TGI [44]: 51.7 µM
TGI [45]: 65 µM
TGI [46]: 69.4 µM
TGI [58]: 46.4 µM
TGI [47]: 31.2 µM
TGI [48]: > 100 µM
TGI [49]: 69.3 µM
TGI [50]: 30.2 µM
TGI [59]: 34.9 µM
TGI [51]: 94.4 µM
TGI [52]: 69.3 µM
